Test results: US10898510B2, “Sulphated hyaluronic acids functionalised with dopamine” (priority 2016, dated 2021)

Tested on: Staphylococcus aureus
Experiment: In vitro inhibition of S. aureus bacterial growth, titanium cylinder functionalized with HAS2-DOPA or HA-DOPA and Gentamicin
Type: cell-based
Conditions: Daptomycin at the same concentrations instead of Gentamicin
Experimental: The following were prepared:
a solution of HA-DOPA (23%, Example 12) in 0.1 M PBS, pH=8; […]
Identical treatment was applied to the other two titanium cylinders, of equal size, which were sprayed first with the HA-DOPA derivative solution and then with the Gentamicin solution, by the procedures described above.
Finally, two other titanium cylinders, of identical size, were sprayed with the PBS solution and then with the Gentamicin solution, by the procedures described above.
Each cylinder (total: 6) was then immersed once in MQ water for 5 seconds, left to air-dry for 15 minutes and inserted in a culture broth (Buffered Peptone Water: peptone 10.0 g/L, sodium chloride 5.0 g/L, anhydrous disodium phosphate 3.6 g/L, potassium phosphate 1.5 g/L, Biokar Diagnostics) inoculated with 600,000,000 CFU/mL of Staphylococcus aureus. The broth was incubated at 37° C., and at pre-set times (6 h, 12 h, 24 h, 48 h, 144 h) 1 mL of supernatant was taken up and diluted scalarly 1:10 (according to the bacterial growth), with sterile saline solution, for plate seeding (PCA—Plate Count Agar: tryptone 5.0 g/L, yeast extract 2.5 g/L, glucose 1.0 g/L, bacteriological agar 12.0 g/L. Manufactured by Biokar Diagnostics). The CFU/mL count was then conducted.
The percentage bacterial growth inhibition data over time compared with the initial inoculum of 600 million CFU/mL of S. aureus are set out in FIG. 4.

Compound: CCCCCCCCCC(=O)N[C@@H](Cc1c[nH]c2ccccc12)C(=O)N[C@H](CC(N)=O)C(=O)N[C@@H](CC(=O)O)C(=O)N[C@@H]1C(=O)NCC(=O)N[C@@H](CCCN)C(=O)N[C@@H](CC(=O)O)C(=O)N[C@H](C)C(=O)N[C@@H](CC(=O)O)C(=O)NCC(=O)N[C@H](CO)C(=O)N[C@@H]([C@H](C)CC(=O)O)C(=O)N[C@@H](CC(=O)c2ccccc2N)C(=O)O[C@@H]1C [Daptomycin]
- activity profile in similar experiment with Daptomycin: identical activity profile
